Test results as given in US8815304B2, “Compositions and methods for promoting appetite suppression using alkali metals” (Ashberry International Limited, priority 2010, dated 2014).

Tests used:
Format in all cases: in vivo, human
[1] = Example 1: alkali metal composition in water taken daily by a 100 kg person for two months; details: 300 mg in water, each over another two-month period
Description: A 100 kg person was administered a pharmaceutical composition of the invention. Cesium chloride ([…]), rubidium chloride ([…]) and lithium aspartate (40 milligrams) together were dissolved in one glass of water and ingested in the morning daily over a two month period.

[2] = Weight loss trials in one subject (first to fifth and further trials, Examples 4-9); details: for weight lost during the trial: two months (61 days)
Description: The therapeutic efficacy of a composition in accordance with the present invention has been tested herein.
These trials were not undertaken to lose weight as quickly as possible but rather they were undertaken with the recommendation by doctors to the subject(s) not to lose weight too quickly and to eat potassium rich foods, especially at night, instead of junk food.
As such, the aim of these trials was to have the subjects lose weight and stop the cravings for junk food with the aid of the compositions of this invention and use the enhanced energy and stimulation supplied from the compositions to change eating habits away from junk food thereby facilitating weight loss.
During a first trial, a subject was administered 300 mg of cesium chloride once per day in a glass of water every morning. The first trial lasted two months (61 days) and the subject (100 kg) lost ten kilograms during this time period, as follows:
In a second trial, the subject was administered 120 mg of lithium carbonate once per day with a glass of water every morning for two months (59 days). The subject reported after two weeks the stress of trying to diminish junk food intake was reduced.
In a third trial, the subject was administered 40 mg of lithium carbonate with a glass of water every morning for two months. The subject reported that the most difficult aspect was to stop the craving for junk food in the evening and the late afternoon.
In a fourth trial, the subject was administered 300 mg of rubidium chloride once per once day in a glass of water in the morning. This trial lasted two months (61 days), and the subject lost ten kilograms during this time period. The most difficult aspect reported was the urge to eat junk food for dinner and the cravings in the evening, which contributed to poor weight loss at the beginning of the trial (an option for people who cannot stop eating junk food at night would be to split the dosage and take half in the morning and half late in the afternoon or increase the dosage to 200 mg in the morning and 200 mg in the late afternoon).
In a fifth trial, the subject was administered 150 mg of rubidium chloride, 150 mg cesium chloride, and 40 mg of lithium carbonate once per day together in a glass of water in the morning. This trial lasted two months (61 days) and the subject lost ten kilograms during this time period. The most difficult aspect reported by the subject was the craving for junk food for dinner or late in the afternoon. This contributed to the little weight loss early in the study.
In further trials, the subject was administered lithium salts—lithium orotate, lithium aspartate, and lithium citrate (40 mg) with a glass of water in the morning. The subject reported similar cravings as noted above.

[3] = Blind trial with two subjects (rubidium chloride vs powdered sugar placebo), Example 10; details: rubidium chloride 300 mg once per day
Description: In a blind trial with two subjects, a subject (66 kg) was administered 300 mg of rubidium chloride once per day in a glass of water in the morning for two months (61 days). The second subject was a person (98 kg) who was administered a placebo of powdered sugar once per day in a glass of water in the morning during the same two months.
The most difficult aspect reported by the subject was to stop eating junk food for dinner and to stop the craving for junk food in the evening, which is believed to be the reason for little weight loss at the beginning of the trial (a proposed solution for people who cannot stop eating at night would be to split the dosage of the 300 mg of rubidium chloride and take half in the morning and half late in the afternoon).
The aim of this trial was to have the subject lose weight and stop the craving for junk food with the aid of the composition. The enhanced energy and stimulation supplied from the composition that was tested to determine if it prompted a change in eating habits away from junk food, thereby facilitated weight loss. Both subjects stated there was a higher craving for junk food for them in the afternoon and evening.
The trial lasted two months and the subject lost no weight and found the powdered sugar caused no stimulation, while the subject lost 6.5 kilograms during this time period, as follows: […]

[4] = further trials, lithium salt 40 mg in the morning
[5] = further trials, lithium salt 40 mg in the morning, after two weeks
[6] = further trials, lithium salt 40 mg with a glass of water in the morning

## [Cl-].[Cs+] [cesium chloride]
[1]
  effect of the individual alkali metals ingested separately, compared with the combination: worked as well and with the same sensation
[2]; first trial, cesium chloride 300 mg once per day, day 1-9
  Weight: 100 kg
[2]; first trial, cesium chloride 300 mg once per day, day 10-13
  Weight: 99 kg
[2]; first trial, cesium chloride 300 mg once per day, day 14-15
  Weight: 98 kg
[2]; first trial, cesium chloride 300 mg once per day, day 16-23
  Weight: 97 kg
[2]; first trial, cesium chloride 300 mg once per day, day 24-34
  Weight: 96 kg
[2]; first trial, cesium chloride 300 mg once per day, day 35-41
  Weight: 95 kg
[2]; first trial, cesium chloride 300 mg once per day, day 42-47
  Weight: 94 kg
[2]; first trial, cesium chloride 300 mg once per day, day 48-52
  Weight: 93 kg
[2]; first trial, cesium chloride 300 mg once per day, day 53-55
  Weight: 92 kg
[2]; first trial, cesium chloride 300 mg once per day, day 56-58
  Weight: 91 kg
[2]; first trial, cesium chloride 300 mg once per day, day 59-61
  Weight: 90 kg
[2]; first trial, cesium chloride 300 mg once per day, subject 100 kg
  weight lost during the trial: ten

## N[C@@H](CC(=O)[O-])C(=O)[O-].[Li+].[Li+] [lithium aspartate]
[2]; [4]
  feeling of stimulation (subject report): not the feeling of stimulation as in the first and fourth trials
[2]; [5]
  stress of trying to diminish junk food intake (subject report): decreased
[2]; [6]
  weight loss (in words): Weight loss was recorded

## O=C([O-])[O-].[Li+].[Li+] [lithium carbonate]
[2]; second trial, lithium carbonate 120 mg once per day, after two weeks
  stress of trying to diminish junk food intake (subject report): reduced
[2]; second trial, lithium carbonate 120 mg once per day, day 1-14
  Weight: 100 kg
[2]; second trial, lithium carbonate 120 mg once per day, day 15-19
  Weight: 99 kg
[2]; second trial, lithium carbonate 120 mg once per day, day 20-27
  Weight: 98 kg
[2]; second trial, lithium carbonate 120 mg once per day, day 28-35
  Weight: 97 kg
[2]; second trial, lithium carbonate 120 mg once per day, day 36-39
  Weight: 96 kg
[2]; second trial, lithium carbonate 120 mg once per day, day 40-46
  Weight: 95 kg
[2]; second trial, lithium carbonate 120 mg once per day, day 47-52
  Weight: 94 kg
[2]; second trial, lithium carbonate 120 mg once per day, day 53-57
  Weight: 93 kg
[2]; second trial, lithium carbonate 120 mg once per day, day 58-59
  Weight: 92 kg
[2]; second trial, lithium carbonate 120 mg once per day, two months (59 days)
  weight loss (in words): Weight loss resulted
[2]; third trial, lithium carbonate 40 mg every morning
  feeling of stimulation (subject report): not the feeling of stimulation as in the first trial
[2]; third trial, lithium carbonate 40 mg every morning, after two weeks
  stress of trying to reduce junk food intake (subject report): reduced
[2]; third trial, lithium carbonate 40 mg every morning, day 1-15
  Weight: 100 kg
[2]; third trial, lithium carbonate 40 mg every morning, day 16-25
  Weight: 99 kg
[2]; third trial, lithium carbonate 40 mg every morning, day 26-34
  Weight: 98 kg
[2]; third trial, lithium carbonate 40 mg every morning, day 35-41
  Weight: 97 kg
[2]; third trial, lithium carbonate 40 mg every morning, day 42-48
  Weight: 96 kg
[2]; third trial, lithium carbonate 40 mg every morning, day 49-53
  Weight: 95 kg
[2]; third trial, lithium carbonate 40 mg every morning, day 54-57
  Weight: 94 kg
[2]; third trial, lithium carbonate 40 mg every morning, day 58-60
  Weight: 93 kg
[2]; third trial, lithium carbonate 40 mg every morning, day 61
  Weight: 92 kg
[2]; third trial, lithium carbonate 40 mg every morning, two months
  weight loss (in words): Weight loss also resulted

## O=C([O-])CC(O)(CC(=O)[O-])C(=O)[O-].[Li+].[Li+].[Li+] [lithium citrate]
[2]; [4]
  feeling of stimulation (subject report): not the feeling of stimulation as in the first and fourth trials
[2]; [5]
  stress of trying to diminish junk food intake (subject report): decreased
[2]; [6]
  weight loss (in words): Weight loss was recorded

## O=C([O-])c1cc(=O)[nH]c(=O)[nH]1.[Li+] [lithium orotate]
[2]; [4]
  feeling of stimulation (subject report): not the feeling of stimulation as in the first and fourth trials
[2]; [5]
  stress of trying to diminish junk food intake (subject report): decreased
[2]; [6]
  weight loss (in words): Weight loss was recorded

## [Cl-].[Rb+] [rubidium chloride]
[1]
  effect of the individual alkali metals ingested separately, compared with the combination: worked as well and with the same sensation
[2]; fourth trial, rubidium chloride 300 mg once per day, day 1-10
  Weight: 102 kg
[2]; fourth trial, rubidium chloride 300 mg once per day, day 11-15
  Weight: 101 kg
[2]; fourth trial, rubidium chloride 300 mg once per day, day 16-23
  Weight: 100 kg
[2]; fourth trial, rubidium chloride 300 mg once per day, day 24-29
  Weight: 99 kg
[2]; fourth trial, rubidium chloride 300 mg once per day, day 30-35
  Weight: 98 kg
[2]; fourth trial, rubidium chloride 300 mg once per day, day 36-40
  Weight: 97 kg
[2]; fourth trial, rubidium chloride 300 mg once per day, day 41-45
  Weight: 96 kg
[2]; fourth trial, rubidium chloride 300 mg once per day, day 46-50
  Weight: 95 kg
[2]; fourth trial, rubidium chloride 300 mg once per day, day 51-54
  Weight: 94 kg
[2]; fourth trial, rubidium chloride 300 mg once per day, day 55-59
  Weight: 93 kg
[2]; fourth trial, rubidium chloride 300 mg once per day, day 60-61
  Weight: 92 kg
[2]; fourth trial, rubidium chloride 300 mg once per day
  weight lost during the trial: ten
[3]; subject (66 kg), two months (61 days)
  weight lost during the trial: 6.5 kilograms
[3]; subject
  craving for junk food (subject report): less craving for junk food than normal even after the first day
  energy and activity during the day (subject report): much more energy than before
  stimulation from the medication (subject report): very, very strong
[3]; subject, day 1-5
  Weight: 66 kg
[3]; subject, day 6-9
  Weight: 65.5 kg
[3]; subject, day 10-12
  Weight: 65 kg
[3]; subject, day 13-18
  Weight: 64 kg
[3]; subject, day 19-28
  Weight: 63 kg
[3]; subject, day 29-30
  Weight: 64 kg
[3]; subject, day 31-32
  Weight: 63.5 kg
[3]; subject, day 33-34
  Weight: 63 kg
[3]; subject, day 35-43
  Weight: 62 kg
[3]; subject, day 44-51
  Weight: 61 kg
[3]; subject, day 52-55
  Weight: 60.5 kg
[3]; subject, day 56-59
  Weight: 60 kg
[3]; subject, day 60-61
  Weight: 59.5 kg
